Measurements reported in PubChem BioAssay AID248 (DTP/NCI, 2004).
Where “and” joins values, the source holds several entries; their conditions need not be identical. Identical values can stand only once. Inconclusive results and toxic doses are left out.

Test system: L1210 leukemia ip in BDF1 mice, survival T/C
Assay: NCI In Vivo Anticancer Drug Screen. Data for tumor model L1210 Leukemia (intraperitoneal) in B6D2F1 (BDF1) mice
Details: endpoint: mean survival time, higher = longer survival
Summary of the method: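 Transplanted-tumor mice were given test agent; controls received vehicle only. Survival readings from the two groups were divided (treated over control).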

[1] = dose: 100.0 mg/kg/injection, schedule: Q04DX002 (ip), vehicle: Klucel (hydroxypropylcellulose) (HPC)
[2] = dose: 200.0 mg/kg/injection, schedule: Q04DX002 (ip), vehicle: Klucel (hydroxypropylcellulose) (HPC)
[3] = dose: 400.0 mg/kg/injection, schedule: Q04DX002 (ip), vehicle: Klucel (hydroxypropylcellulose) (HPC)
[4] = dose: 100.0 mg/kg/injection, schedule: Q01DX009 (ip), vehicle: Klucel (hydroxypropylcellulose) (HPC)
[5] = dose: 200.0 mg/kg/injection, schedule: Q01DX009 (ip), vehicle: Klucel (hydroxypropylcellulose) (HPC)
[6] = dose: 400.0 mg/kg/injection, schedule: Q01DX009 (ip), vehicle: Klucel (hydroxypropylcellulose) (HPC)
[7] = dose: 50.0 mg/kg/injection, schedule: Q01DX001 (ip), vehicle: saline
[8] = dose: 50.0 mg/kg/injection, schedule: Q01DX009 (ip), vehicle: saline
[9] = dose: 50.0 mg/kg/injection, schedule: Q04DX003 (ip), vehicle: saline
[10] = dose: 100.0 mg/kg/injection, schedule: Q01DX001 (ip), vehicle: saline
[11] = dose: 100.0 mg/kg/injection, schedule: Q04DX003 (ip), vehicle: saline
[12] = dose: 200.0 mg/kg/injection, schedule: Q04DX003 (ip), vehicle: saline
[13] = dose: 100.0 mg/kg/injection, schedule: Q01DX009 (ip), vehicle: saline with Tween-80
[14] = dose: 200.0 mg/kg/injection, schedule: Q01DX009 (ip), vehicle: saline with Tween-80
[15] = dose: 400.0 mg/kg/injection, schedule: Q01DX009 (ip), vehicle: saline with Tween-80
[16] = dose: 200.0 mg/kg/injection, schedule: Q01DX001 (ip), vehicle: saline
[17] = dose: 100.0 mg/kg/injection, schedule: Q04DX003 (ip), vehicle: saline with Tween-80
[18] = dose: 200.0 mg/kg/injection, schedule: Q04DX003 (ip), vehicle: saline with Tween-80
[19] = dose: 400.0 mg/kg/injection, schedule: Q04DX003 (ip), vehicle: saline with Tween-80
[20] = dose: 400.0 mg/kg/injection, schedule: Q04DX003 (ip), vehicle: saline
[21] = dose: 50.0 mg/kg/injection, schedule: Q01DX001 (ip), vehicle: carboxymethylcellulose (CMC)
[22] = dose: 100.0 mg/kg/injection, schedule: Q01DX001 (ip), vehicle: carboxymethylcellulose (CMC)
[23] = dose: 200.0 mg/kg/injection, schedule: Q01DX001 (ip), vehicle: carboxymethylcellulose (CMC)
[24] = dose: 400.0 mg/kg/injection, schedule: Q01DX001 (ip), vehicle: saline

SMILES: CCCCCCCCCCCCSC(=O)Nc1ccc(C(=O)OCC)cc1
- T/C [1]: 95 % of control
- T/C [2]: 116 % of control
- T/C [3]: 92 % of control

SMILES: COc1ccc([N+](=O)[O-])cc1NC(=O)Nc1ccc(F)c([N+](=O)[O-])c1
- T/C [4]: 98 % of control
- T/C [5]: 95 % of control
- T/C [6]: 95 % of control

SMILES: CCN(CC)CCn1c(=O)c2ccccc2c2ccccc21
- T/C [7]: 108 % of control
- T/C [8]: 106 % of control
- T/C [9]: 103 % of control
- T/C [10]: 104 % of control
- T/C [11]: 111 % of control
- T/C [12]: 107 % of control

SMILES: COC(=O)c1ccc(C(=O)OC)c(=O)[nH]1
- T/C [4]: 109 % of control
- T/C (dose: 100.0 mg/kg/injection, schedule: Q04DX003 (ip), vehicle: Klucel (hydroxypropylcellulose) (HPC)): 103 % of control
- T/C [5]: 101 % of control
- T/C (dose: 200.0 mg/kg/injection, schedule: Q04DX003 (ip), vehicle: Klucel (hydroxypropylcellulose) (HPC)): 102 % of control
- T/C [6]: 102 % of control
- T/C (dose: 400.0 mg/kg/injection, schedule: Q04DX003 (ip), vehicle: Klucel (hydroxypropylcellulose) (HPC)): 97 % of control

SMILES: O=C(O)CN1C(=O)CSC1=S
- T/C [13]: 655 % of control
- T/C [14]: 91 % of control
- T/C [15]: 89 % of control

SMILES: COc1cc([N+](=O)[O-])c2nc(C(=O)O)ccc2c1
- T/C [7]: 116 % of control
- T/C [10]: 106 % of control
- T/C [16]: 112 % of control

SMILES: O=C(CCc1ccc(Cl)cc1)Nc1ccccc1
- T/C (dose: 25.0 mg/kg/injection, schedule: Q04DX002 (ip), vehicle: Klucel (hydroxypropylcellulose) (HPC)): 97 % of control
- T/C (dose: 50.0 mg/kg/injection, schedule: Q04DX002 (ip), vehicle: Klucel (hydroxypropylcellulose) (HPC)): 86 % of control
- T/C [1]: 93 % of control

SMILES: C(=C\c1ccccc1)/C=N/N=C/C=C/c1ccccc1
- T/C (dose: 100.0 mg/kg/injection, schedule: Q01DX001 (ip), vehicle: other): 105 % of control
- T/C [13]: 94 % of control
- T/C [1]: 100 % of control
- T/C [17]: 90 % of control
- T/C (dose: 200.0 mg/kg/injection, schedule: Q01DX001 (ip), vehicle: other): 97 % of control
- T/C [14]: 90 % of control
- T/C [2]: 96 % of control
- T/C [18]: 89 % of control
- T/C (dose: 400.0 mg/kg/injection, schedule: Q01DX001 (ip), vehicle: other): 94 % of control
- T/C [15]: 94 % of control
- T/C [3]: 100 % of control
- T/C [19]: 92 % of control

SMILES: O=C(O)C1CCCN1CCc1ccccc1 (stereo not drawn)
- T/C [11]: 107 % of control
- T/C [12]: 105 % of control
- T/C [20]: 97 % of control

SMILES: O=P(O)(Oc1cccc(Cl)c1)Oc1cccc(Cl)c1
- T/C (dose: 100.0 mg/kg/injection, schedule: Q04DX002 (ip), vehicle: saline with Tween-80): 115 % of control
- T/C (dose: 200.0 mg/kg/injection, schedule: Q04DX002 (ip), vehicle: saline with Tween-80): 104 % of control

SMILES: O=C1NC(=O)C(O)(C2(O)C(=O)NC(=O)NC2=O)C(=O)N1
- T/C (dose: 75.0 mg/kg/injection, schedule: Q01DX001 (ip), vehicle: carboxymethylcellulose (CMC)): 101 % of control
- T/C [13]: 106 % of control
- T/C (dose: 150.0 mg/kg/injection, schedule: Q01DX001 (ip), vehicle: carboxymethylcellulose (CMC)): 102 % of control
- T/C [14]: 92 % of control
- T/C [15]: 88 % of control

SMILES: COC(=O)CCN(C(=O)c1ccccc1)c1ccccc1C(=O)OC
- T/C (dose: 75.0 mg/kg/injection, schedule: Q01DX001 (ip), vehicle: saline): 98 % of control
- T/C (dose: 150.0 mg/kg/injection, schedule: Q01DX001 (ip), vehicle: saline): 93 % of control
- T/C (dose: 300.0 mg/kg/injection, schedule: Q01DX001 (ip), vehicle: saline): 86 % of control

SMILES: c1ccc2c(c1)c1c(c3ccccc32)CN2CCCC2C1 (stereo not drawn)
- T/C [21]: 105 % of control
- T/C [22]: 105 % of control
- T/C [23]: 92 % of control
- T/C (dose: 400.0 mg/kg/injection, schedule: Q01DX001 (ip), vehicle: carboxymethylcellulose (CMC)): 103 % of control

SMILES: N#CSCC(=O)c1ccc(Cl)cc1
- T/C [21]: 91 % of control
- T/C [22]: 100 % of control
- T/C [23]: 100 % of control

SMILES: Nc1cc(C(=O)Nc2cccc(C3=NCCCN3)c2)ccc1C(=O)Nc1cccc(C2=NCCCN2)c1
- T/C (dose: 0.17 mg/kg/injection, schedule: Q01DX Z (ip), vehicle: water): 100 % of control
- T/C (dose: 0.34 mg/kg/injection, schedule: Q01DX Z (ip), vehicle: water): 90 % of control
- T/C (dose: 0.68 mg/kg/injection, schedule: Q01DX Z (ip), vehicle: water): 88 % of control

SMILES: O=C1OC(=O)c2ccc(Sc3ccccn3)c3cccc1c23
- T/C (dose: 100.0 mg/kg/injection, schedule: Q04DX003 (ip), vehicle: carboxymethylcellulose (CMC)): 93 % of control
- T/C (dose: 200.0 mg/kg/injection, schedule: Q04DX003 (ip), vehicle: carboxymethylcellulose (CMC)): 88 % of control
- T/C (dose: 400.0 mg/kg/injection, schedule: Q04DX003 (ip), vehicle: carboxymethylcellulose (CMC)): 93 % of control

SMILES: COc1ccc(/C=N/N2CCN(/N=C/c3ccc(OC)c(O)c3)CC2)cc1O
- T/C [10]: 93 % of control
- T/C [16]: 87 % of control
- T/C [24]: 96 % of control

SMILES: Oc1c(-c2ccccc2)nn(O)c1-c1ccccc1
- T/C (dose: 50.0 mg/kg/injection, schedule: Q01DX009 (ip), vehicle: Klucel (hydroxypropylcellulose) (HPC)): 105 % of control

SMILES: O=C1C(=O)C2(O)C(=O)C12O (stereo not drawn)
- T/C [11]: 91 % of control

SMILES: CC(=O)Nc1cccc(OC(=O)Nc2cccc(Cl)c2Cl)c1
- T/C [4]: 97 % of control
- T/C [5]: 102 % of control
- T/C [6]: 103 % of control

SMILES: O=S(=O)(CCS(=O)(=O)c1ccccc1)c1ccccc1
- T/C [8]: 94 % of control
- T/C [1]: 92 % of control
- T/C (dose: 150.0 mg/kg/injection, schedule: Q01DX009 (ip), vehicle: saline): 97 % of control
- T/C [2]: 92 % of control
- T/C [3]: 88 % of control

SMILES: CCOC(=O)C(Nc1ccc(SC)cc1)c1ccccc1 (stereo not drawn)
- T/C [10]: 110 % of control
- T/C [16]: 98 % of control
- T/C [24]: 98 % of control

SMILES: Clc1ccccc1/C=C/C=C1c2ccccc2-c2ccccc21
- T/C [11]: 98 % of control and 90 % of control
- T/C [12]: 98 % of control
- T/C [20]: 105 % of control and 92 % of control

SMILES: Cc1cc[n+](Cc2ccc([N+](=O)[O-])cc2)cc1
- T/C (dose: 25.0 mg/kg/injection, schedule: Q01DX009 (ip), vehicle: saline): 94 % of control
- T/C [8]: 89 % of control
- T/C [9]: 101 % of control
- T/C [10]: 96 % of control
- T/C (dose: 100.0 mg/kg/injection, schedule: Q01DX009 (ip), vehicle: saline): 93 % of control
- T/C [11]: 98 % of control
- T/C [16]: 100 % of control

SMILES: CCCCCCCNC(=O)CI
- T/C [10]: 103 % of control
- T/C [16]: 111 % of control

SMILES: c1ccc2c(Nc3ccc(C4=NCCN4)cc3)nnc(Nc3ccc(C4=NCCN4)cc3)c2c1
- T/C (dose: 38.0 mg/kg/injection, schedule: Q01DX Z (ip), vehicle: carboxymethylcellulose (CMC)): 110 % of control
- T/C (dose: 62.5 mg/kg/injection, schedule: Q01DX Z (oral), vehicle: saline): 103 % of control
- T/C (dose: 63.0 mg/kg/injection, schedule: Q01DX Z (oral), vehicle: water): 95 % of control
- T/C (dose: 84.0 mg/kg/injection, schedule: Q01DX Z (ip), vehicle: carboxymethylcellulose (CMC)): 170 % of control
- T/C (dose: 125.0 mg/kg/injection, schedule: Q01DX Z (oral), vehicle: saline): 103 % of control
- T/C (dose: 125.0 mg/kg/injection, schedule: Q01DX Z (oral), vehicle: water): 87 % of control
- T/C (dose: 187.5 mg/kg/injection, schedule: Q01DX Z (ip), vehicle: carboxymethylcellulose (CMC)): 119 % of control
- T/C (dose: 250.0 mg/kg/injection, schedule: Q01DX Z (oral), vehicle: saline): 105 % of control
- T/C (dose: 500.0 mg/kg/injection, schedule: Q01DX Z (oral), vehicle: water): 87 % of control

SMILES: O=[N+]([O-])c1ccc(NC(=S)NS(=O)(=O)c2ccccc2)c(Cl)c1
- T/C [4]: 97 % of control
- T/C [5]: 97 % of control
- T/C [6]: 88 % of control

SMILES: O=C(O)C1CCC2SC(F)(F)C(F)(F)C2C1 (stereo not drawn)
- T/C [17]: 98 % of control
- T/C [18]: 96 % of control
- T/C [19]: 98 % of control
